# Patent US20160120915A1, “METHODS FOR MANIPULATING IMMUNE RESPONSES BY ALTERING MICROBIOTA” (NEW YORK UNIVERSITY, priority 2013, published 2016)
# Experiments:
# ileum = test: EarlySTAT: ileal gene expression by qPCR in 4- and 8-week mice; assay type: in vivo, C57BL/6J mice; details: STAT vs control
# Excerpt: C57BL/6J (Jackson Labs, Bar Harbor, Me.) mice either received no antibiotics (control) or continuous STAT penicillin. Mice were weaned at 4 weeks onto normal chow (13.2% fat, 5053 PicoLab Rodent Diet 20, LabDiet, Brentwood, Mo.), then switched to a high fat diet (45% kcal from fat, D12451, Research Diets, New Brunswick, N.J.) at 6 weeks of life. Mice were sacrificed at 4, 8, and 18 weeks of age. The terminal[1 cm] ileum without Peyer's Patches [TI-] was collected for gene expression analysis by qPCR. The proximal 1 cm of ileum was used for histological analysis of tissue structure, and the remaining ileum was used to determine immunity phenotypes by flow cytometry.
# C57BL6J mice were exposed to sub-therapeutic antibiotic treatment (STAT) with penicillin via their drinking water from birth, or no antibiotics (Control). Mice were fed a normal diet until 6 weeks of age, then they were fed high fat diet. 5 mice from each experimental group were sacrificed at 4 weeks, and 4 mice from each group were sacrificed at 8 weeks. The terminal[1 cm] ileum without Peyer's Patches [TI-] was collected for gene expression analysis by qPCR. The proximal 1 cm of ileum was used for histological analysis of tissue structure, and the remaining ileum was used to determine immunity phenotypes by flow cytometry. Ileal gene expression was also measured by microarray and the nCounter GX Mouse Immunology Kit (Nanostring Technologies, Seattle, Wash., USA).
# Total RNA was extracted from mouse tissues using the RNeasy Mini Kit (Qiagen), according to the manufacturer's instructions. Total RNA was reverse transcribed to cDNA using the Verso™ cDNA Synthesis Kit (Thermo Scientific). To generate standards for expression analysis of each target gene, the cDNA region of interest was PCR-amplified and the PCR product was cloned into pGEM-T easy (Promega). qPCR was performed with LightCycler 480 SYBR Green I Master mix (Roche) and run in a LightCycler 480 system (Roche). Target mRNA was normalized to GAPDH mRNA as an internal control in each sample.
# Ileal expression of T-bet [Th1], GATA3 [Th2], Foxp3 [Treg], and RORγt [Th17] (FIG. 4A), and IFNγ [Th1], IL-4 [Th2], TGFβ1 [Treg], and IL-17 [Th17] (FIG. 4B) (4-week; Control, n=4, STAT, n=5, 8-week; Control, n=3, STAT, n=4) was quantitated by qPCR and normalized by GAPDH expression. […] These studies provide evidence that low dose antibiotic exposure can be used to change immune effector T-cell populations and the effector molecules they produce.
# Ileal expression of defensin β1, Reg3γ, and Relmβ (4-week; Control n=4, STAT n=5, 8-week; Control n=3, STAT n=4) was quantitated by qPCR and normalized by GAPDH expression. […] These findings provide examples of how the STAT exposure changed intestinal expression of antimicrobial peptide genes.
# Ileal expression of the IgA J-chain, polymeric Ig receptor (pIgR), both related to polymeric IgA function, and TLR2 and TLR4 was quantitated by qPCR and normalized by GAPDH expression in 4- and 8-week STAT [4-week; Control n=3, STAT n=4, 8-week; Control n=3, STAT n=4].
# [1] = test system: CD3+CD4+ lamina propria lymphocytes; test: Flow cytometry of lamina propria lymphocytes for Th17-produced cytokines, 8-week STAT; assay type: in vivo, C57BL/6J mice; details: small and large intestine, STAT vs control
# Excerpt: Lamina propria lymphocytes (LPL) from both small and large intestine were isolated from 8-week STAT mice (Control n=4, STAT n=4) and analyzed for intracellular, Th17-produced cytokines by flow cytometry. Plots gated on CD3+CD4+LPL. IL-17^+ and IL-22^+ cells were decreased in STAT compared to control mice in both the small and large intestine (FIG. 5).
# Small and large intestines of mice were dissected, and all mesenteric fat and Peyer's patches were removed. Intestines were fileted for removal of stool, cut into 2 cm pieces, and washed with PBS. Tissues were transferred to tubes with 10 ml 1 mM DTT/PBS, shaken at RT for 10 minutes, and transferred to tubes with 30 mM EDTA and 10 mM HEPES in PBS. Intestines were then shaken at 37° C. for 20 minutes and washed in complete RPMI. The small and large intestines were digested at 37 C for 1.5 hours in 100 units/ml collagenase Type VIII (Sigma) and 150 μg/ml DNase (Sigma) in complete RPMI. Cells were filtered through a 50 micron filter, washed with 5 ml PBS, and pelleted. Cells were then resuspended in 40% Percoll (GE Healthcare), under-layed with 80% Percoll, and centrifuged at 2,200 rpm for 20 min at RT. […]
# Cells were stimulated with phorbol 12-myristate 13-acetate (PMA) and ionomycin for 4 hours at 37 C with the addition of GolgiPlug (BD). […] Cells were acquired on an LSRII (BD) and analyzed with FlowJo (Tree Star, Inc.) software.
# [2] = 4- and 8-week, qPCR and microarray
compound,measurement,setting,value
"CC1(C)S[C@@H]2[C@H](NC(=O)COc3ccccc3)C(=O)N2[C@H]1C(=O)[O-].[K+] [STAT, penicillin VK]","expression of all four transcription factors (T-bet, GATA3, Foxp3, RORγt)",ileum; 4- and 8-week mice,trended downwards
same,"ileal B cell markers (IgA J-chain, pIgR)",ileum; [2],significantly down-regulated
same,"ileal TLRs (TLR2, TLR4)",ileum; [2],downward trend
same,ileal expression of IL-17 [Th17],"ileum; at 4- and 8-weeks, p<0.05",significantly down-regulated
same,ileal expression of RORγt [Th17],"ileum; at 4- and 8-weeks, p<0.05",significantly down-regulated
same,ileal expression of T-bet [Th1],"ileum; at 4- and 8-weeks, p<0.05",significantly down-regulated
same,ileal expression of IFNγ [Th1],"ileum; at 4-weeks, p<0.05",significantly down-regulated
same,ileal Relmβ expression,"ileum; at 4 weeks, p<0.05",significantly lower
same,ileal expression of GATA3 [Th2],"ileum; at 8-weeks, p<0.05",significantly down-regulated
same,ileal expression of TGFβ1 [Treg],"ileum; at 8-weeks, p<0.05",significantly down-regulated
same,"ileal expression of all three antimicrobial peptides (defensin β1, Reg3γ, Relmβ)","ileum; at 8 weeks, p<0.05",significantly lower
same,IL-17+ cells among CD3+CD4+ LPL,[1],decreased
same,IL-22+ cells among CD3+CD4+ LPL,[1],decreased
